# According to PubChem BioAssay (NCI):
#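 Values below derive from 48-hour exposures of cells grown in 96-well plates, with endpoints linearly interpolated between the two concentrations bracketing the appropriate inhibition level. GI50 is the concentration that inhibits growth by half. TGI is the concentration that stops growth completely.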
# Tests used:
# Assay in all cases: NCI-60 cell line screen, 48 h
# [1] = tested on: A549 NSCLC
# [2] = tested on: M14 melanoma
# [3] = tested on: MDA-MB-435
# [4] = tested on: SF-539 CNS
# [5] = tested on: MDA-MB-231 breast
# [6] = tested on: T-47D breast
# [7] = tested on: HOP-92 NSCLC
# [8] = tested on: NCI-H522 lung
# [9] = tested on: SR leukemia
# [10] = tested on: UACC-62 melanoma
# [11] = tested on: SW-620 colon
# [12] = tested on: NCI-H23 lung
# [13] = tested on: NCI-H460 lung
# [14] = tested on: UACC-257 melanoma
# [15] = tested on: SF-268 CNS
# [16] = tested on: SK-MEL-28 melanoma
# [17] = tested on: RPMI-8226 leukemia
# [18] = tested on: COLO 205 colon
# [19] = tested on: NCI/ADR-RES ovarian
# [20] = tested on: HT29 colon
# [21] = tested on: IGROV1 ovarian
# [22] = tested on: MCF7 breast
# [23] = tested on: UO-31 renal
# [24] = tested on: MALME-3M melanoma
# [25] = tested on: K-562 leukemia
# [26] = tested on: TK-10 renal
# [27] = tested on: 786-0 renal
# [28] = tested on: SK-MEL-5 melanoma
# [29] = tested on: OVCAR-8 ovarian
structure (smiles),measurement,setting,value
COc1ccc2[nH]cc(-c3nc(N)nnc3-c3cn(C)c4ccc(Br)cc34)c2c1,GI50,[1],5.59 µM
same,TGI,[1],90.3 µM
same,GI50,[2],2.66 µM
same,TGI,[2],12.4 µM
same,GI50,[3],0.414 µM
same,TGI,[3],1.76 µM
same,GI50,[4],3.11 µM
same,TGI,[4],12 µM
same,GI50,[5],4.48 µM
same,TGI,[5],28.3 µM
same,GI50,[6],3.31 µM
same,TGI,[6],30.1 µM
same,GI50,[7],2.58 µM
same,TGI,[7],17.3 µM
same,GI50,[8],2.4 µM
same,TGI,[8],15.4 µM
same,GI50,[9],1.19 µM
same,TGI,[9],> 100 µM
same,GI50,[10],1.86 µM
same,TGI,[10],11.5 µM
same,GI50,[11],3.85 µM
same,TGI,[11],22.4 µM
same,GI50,[12],2.81 µM
same,TGI,[12],13 µM
same,GI50,[13],3.03 µM
same,TGI,[13],15.6 µM
same,GI50,[14],12.4 µM
same,TGI,[14],46.2 µM
same,GI50,[15],5.87 µM
same,TGI,[15],36.1 µM
same,GI50,[16],6.81 µM
same,TGI,[16],22.2 µM
same,GI50,[17],3.51 µM
same,TGI,[17],> 100 µM
same,GI50,[18],3.48 µM
same,TGI,[18],12.6 µM
same,GI50,[19],4.34 µM
same,TGI,[19],50.1 µM
same,GI50,[20],2.69 µM
same,TGI,[20],12.1 µM
same,GI50,[21],2.89 µM
same,TGI,[21],17.1 µM
same,GI50,[22],1.22 µM
same,TGI,[22],13.5 µM
same,GI50,[23],2.31 µM
same,TGI,[23],17.5 µM
same,GI50,[24],3.36 µM
same,TGI,[24],19.8 µM
same,GI50,[25],1.07 µM
same,TGI,[25],> 100 µM
same,GI50,[26],6.45 µM
same,TGI,[26],60.2 µM
same,GI50,[27],4.23 µM
same,TGI,[27],25.4 µM
same,GI50,[28],2.58 µM
same,TGI,[28],8.5 µM
same,GI50,[29],4.37 µM
